From patent US20070020183A1, “Perfluoroalkyl-containing complexes, process for their production as well as their use” (priority 2005, published 2007)

How the values were obtained:
[1] = test system: inflammatory muscle lesions and necrotic areas; assay: MRT visualization of inflammatory lesions and necrotic areas in rats; type: in vivo; conditions: i.v. 50 μmol of Gd/kg, T1-weighted turbo-spin-echo 1.5 T
Experimental: By way of example, the pictures of FIG. 3 show MR images of inflammatory muscle lesions as well as necrotic areas at different points in time after intravenous administration of 50 μmol of Gd/kg of body weight of gadolinium complex XIV (title substance of Example 4g) in rats. The inflammation/necrosis was induced by intravenous administration of Rose Bengal (20 mg/kg; 24 hours before the administration of contrast medium) and subsequent 20-minute irradiation with a xenon lamp.

[2] = in vivo; cited from earlier work

CC(C(=O)NCC(=O)NCCCC[C@H](NC(=O)CO[C@H]1O[C@H](CO)[C@@H](O)[C@H](O)[C@@H]1O)C(=O)NCCCC(F)(F)C(F)(F)C(F)(F)C(F)(F)C(F)(F)C(F)(F)C(F)(C(F)(F)F)C(F)(F)F)N1CCN(CC(=O)[O-])CCN(CC(=O)[O-])CCN(CC(=O)[O-])CC1.[Gd+3] (stereo partly drawn) [Gadolinium complex XIV, Gadolinium complex of 6-N-[1,4,7-tris-(carboxylatomethyl)-1,4,7,10-tetraazacyclododecane-10-N-(pentanoyl-3-aza-4-oxo-5-methyl-5-yl)]-2-N-(1-O-α-d-carbonylmethylmannopyranose)-L-lysine-[(1H,1H,2H,2H-perfluoro-9-methyldecyl)-methyl]-amide]
MR signal in the central necrosis ([1]; 24 hours p.i.): delayed signal rise | MR signal in inflammatorily altered tissue ([1]; up to 60 minutes p.i.): strong signal rise

Mn-TPPS
LD50 [2]: approximately 0.5 mmol/kg
